{"source": "patent US8868172B2", "about": "“Methods and systems for recommending an appropriate action to a patient for managing epilepsy and other neurological disorders” (Cyberonics, Inc., priority 2005, dated 2014)", "origin": "cited, not measured here", "key": {"[1]": {"experiment": "not given", "remark": "listed apart in the source"}, "rat hippocampal slices": {"test_system": "rat hippocampal slices", "details": "10-30 μg/mL"}, "[2]": {"test_system": "GABA/benzodiazepine receptor ionophore complex", "details": "allosteric, no changes in chloride flux"}, "[3]": {"test_system": "cultured mouse spinal cord neurons", "details": "10-30 μg/mL"}, "sodium channels": {"test_system": "sodium channels", "details": "in vitro"}, "[4]": {"test_system": "dopaminergic and serotonergic neurotransmission", "details": "in vivo microdialysis"}, "T-type Ca^2+ currents": {"test_system": "T-type Ca^2+ currents", "details": "in vitro"}, "[5]": {"details": "for plasma concentration average per daily dose of 1 mg/kg: long term therapy"}, "[6]": {"details": "per daily dose of 1 mg/kg of the drug itself"}}, "note": "Like-named read-outs stand apart in the source and are kept apart here.", "data": [{"smiles": "O=C1NC(=O)C(c2ccccc2)(c2ccccc2)N1", "note": "[Phenyloin, diphenylhydantoin]", "values": [{"measurement": "concentrations at which chronic control of seizures is generally obtained", "value": "above 10 μg/ml"}, {"measurement": "concentrations at which toxic effects such as nystagmus develop", "setting": "[1]", "value": "around 20 μg/ml"}]}, {"smiles": "NS(=O)(=O)Cc1noc2ccccc12", "note": "[zonisamide, 1,2-benzisoxazole-3-methanesulfonamide]", "values": [{"measurement": "effect on neuronal or glial uptake of [3H]-GABA", "setting": "rat hippocampal slices", "value": "without affecting"}, {"measurement": "binding to the GABA/benzodiazepine receptor ionophore complex", "setting": "[2]", "value": "binds"}, {"measurement": "effect on postsynaptic GABA or glutamate responses", "setting": "[3]", "value": "without affecting"}, {"measurement": "effect on synaptically-driven electrical activity", "setting": "[3]", "value": "suppresses"}, {"measurement": "carbonic anhydrase inhibiting activity", "setting": "carbonic anhydrase", "value": "weak"}, {"measurement": "effect on sodium channels", "setting": "sodium channels", "value": "blocks"}, {"measurement": "effect on dopaminergic and serotonergic neurotransmission", "setting": "[4]", "value": "facilitates"}, {"measurement": "effect on voltage-dependent, transient inward currents (T-type Ca2+ currents)", "setting": "T-type Ca^2+ currents", "value": "reduces"}]}, {"smiles": "CCC1(c2ccccc2)C(=O)NCNC1=O", "note": "[primidone, Primidone]", "values": [{"measurement": "plasma concentration average per daily dose of 1 mg/kg", "setting": "[5]; [6]", "value": "about 1 μg/ml"}]}, {"smiles": "CCC1(c2ccccc2)C(=O)NC(=O)NC1=O", "note": "[phenobarbital]", "values": [{"measurement": "plasma concentration of phenobarbital per daily dose of 1 mg/kg of primidone", "setting": "[5]; long term therapy with primidone", "value": "about 2 μg/ml"}, {"measurement": "plasma concentration average per daily dose of 1 mg/kg", "setting": "[5]; adults, per daily dose of 1 mg/kg", "value": "about 10 μg/ml"}]}, {"smiles": "CCC1(C)CC(=O)NC1=O", "note": "(centres unmarked) [ethosuximide, Ethosuximide]", "values": [{"measurement": "plasma concentration average per daily dose of 1 mg/kg", "setting": "[5]; [6]", "value": "about 2 μg/ml"}]}]}
